The values below come from patent US10093683B2, “Factor XIa inhibitors” (Merck Sharp & Dohme Corp., priority 2014, dated 2018).

pKi: −log10 of the molar value. Where only a bound is given, the exact number is not on record here.

human Factor XIa, sequence (P03951 388-625): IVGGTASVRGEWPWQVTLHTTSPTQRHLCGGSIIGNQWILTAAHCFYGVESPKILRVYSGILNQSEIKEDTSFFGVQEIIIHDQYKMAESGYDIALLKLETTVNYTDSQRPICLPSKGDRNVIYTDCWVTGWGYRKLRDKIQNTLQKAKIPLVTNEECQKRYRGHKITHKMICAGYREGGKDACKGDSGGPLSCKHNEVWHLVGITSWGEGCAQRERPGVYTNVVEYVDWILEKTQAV
human Factor XIa, sequence (P03951 19-387 partner): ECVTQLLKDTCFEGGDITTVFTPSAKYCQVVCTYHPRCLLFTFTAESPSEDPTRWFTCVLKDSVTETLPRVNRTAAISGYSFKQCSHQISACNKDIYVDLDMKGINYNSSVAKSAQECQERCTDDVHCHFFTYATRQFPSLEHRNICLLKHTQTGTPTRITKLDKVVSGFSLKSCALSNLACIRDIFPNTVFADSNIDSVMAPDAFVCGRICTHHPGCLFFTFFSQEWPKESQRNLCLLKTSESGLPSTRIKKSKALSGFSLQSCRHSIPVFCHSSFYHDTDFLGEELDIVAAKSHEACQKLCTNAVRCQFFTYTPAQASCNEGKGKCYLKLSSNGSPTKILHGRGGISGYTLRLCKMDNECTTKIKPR

This test deals with human Factor XIa (Homo sapiens (Human), UniProt P03951). As to the kind of experiment: Factor XIa Assay. Conditions: purified human Factor XIa 40 pM, Z-Gly-Pro-Arg-AFC 100 μM, pH 7.4; read-out: FXIa Ki. The format is biochemical. The procedure:
The effectiveness of a compound of the present invention as an inhibitor of Coagulation Factor XIa can be determined using a relevant purified serine protease, and an appropriate synthetic substrate. The rate of hydrolysis of the chromogenic or fluorogenic substrate by the relevant serine protease was measured both in the absence and presence of compounds of the present invention. Assays were conducted at room temperature or at 37° C. […] A decrease in the rate of fluorescence change in the presence of inhibitor is indicative of enzyme inhibition. Such methods are known to one skilled in the art. The results of this assay are expressed as the inhibitory constant, Ki.
Factor XIa determinations were made in 50 mM HEPES buffer at pH 7.4 containing 150 mM NaCl, 5 mM CaCl2, and 0.1% PEG 8000 (polyethylene glycol; JT Baker or Fisher Scientific). Determinations were made using purified human Factor XIa at a final concentration of 40 pM (Sekisui Diagnostics) and he synthetic substrate, Z-Gly-Pro-Arg-AFC, TFA salt (Sigma #C0980) at a concentration of 100 μM.
Times required to achieve equilibration between enzyme and inhibitor were determined in control experiments. Initial velocities of product formation in the absence (Vo) or presence of inhibitor (Vi) were measured. Assuming competitive inhibition, and that unity is negligible compared Km/[S], [I]/e, and [I]/e (where [S], [I], and e respectively represent the total concentrations, of substrate, inhibitor and enzyme), the equilibrium constant (Ki) for dissociation of the inhibitor from the enzyme can be obtained from the dependence of Vo/Vi on [I] shown in the following equation.
As to `COC(=O)Nc1ccc(C(=O)N[C@@H](CCC(F)(F)F)C(=O)N2CCC[C@@]3(C2)OC(=O)Nc2ccc(Cl)c(F)c23)cc1` [Example 36, methyl (4-(((S)-1-((R)-6-chloro-5-fluoro-2-oxo-1,2-dihydrospiro[benzo[d][1,3]oxazine-4,3′-piperidin]-1′-yl)-5,5,5-trifluoro-1-oxopentan-2-yl)carbamoyl)phenyl)carbamate], the negative logarithm of the Ki (pKi) (as a rule, the negative decadic logarithm of the Ki, by convention in mol/L) is 7.07.
As for `COC(=O)Nc1ccc(C(=O)NC[C@@H](Cc2ccccc2)C(=O)N2CCC3(C2)OC(=O)Nc2ccc(Cl)cc23)cc1` (stereo partly drawn) [Example 41, methyl (4-(((2R)-2-benzyl-3-(6-chloro-2-oxo-1,2-dihydrospiro[benzo[d][1,3]oxazine-4,3′-pyrrolidin]-1′-yl)-3-oxopropyl)carbamoyl)phenyl)carbamate], the figure is less than 5.30; as for `COC(=O)Nc1ccc(C(=O)NC(CC2CCS(=O)(=O)CC2)C(=O)N2CCC3(C2)OC(=O)Nc2ccc(Cl)cc23)cc1` (stereo not drawn) [Example 42, methyl (4-((1-(6-chloro-2-oxo-1,2-dihydrospiro[benzo[d][1,3]oxazine-4,3′-pyrrolidin]-1′-yl)-3-(1,1-dioxidotetrahydro-2H-thiopyran-4-yl)-1-oxopropan-2-yl)carbamoyl)phenyl)carbamate], 7.08.
As for `COC(=O)Nc1ccc(C(=O)N[C@@H](Cc2ccc(NS(C)(=O)=O)cc2)C(=O)N2CCC[C@@]3(C2)OC(=O)Nc2ccc(Cl)cc23)cc1` [Example 46, methyl (4-(((S)-1-((R)-6-chloro-2-oxo-1,2-dihydrospiro[benzo[d][1,3]oxazine-4,3′-piperidin]-1′-yl)-3-(4-(methylsulfonamido)phenyl)-1-oxopropan-2-yl)carbamoyl)phenyl)carbamate], the figure is 9.41; as for `COC(=O)Nc1ccc(C(=O)N[C@H](CC(=O)N2CCC3(C2)OC(=O)Nc2ccc(Cl)cc23)Cc2ccccc2)cc1` (stereo partly drawn) [Example 49, methyl (4-(((2S)-4-(6-chloro-2-oxo-1,2-dihydrospiro[benzo[d][1,3]oxazine-4,3′-pyrrolidin]-1′-yl)-4-oxo-1-phenylbutan-2-yl)carbamoyl)phenyl)carbamate], 6.44.
The same measure for `COC(=O)Nc1ccc(C(=O)N[C@@H](CCCCO)C(=O)N2CCC3(C2)OC(=O)Nc2ccc(Cl)cc23)cc1` (stereo partly drawn) [Example 51, methyl (4-(((2S)-1-(6-chloro-2-oxo-1,2-dihydrospiro[benzo[d][1,3]oxazine-4,3′-pyrrolidin]-1′-yl)-6-hydroxy-1-oxohexan-2-yl)carbamoyl)phenyl)carbamate]: 7.25; for `COC(=O)Nc1ccc(C(=O)N[C@@H](CCCCNC(=O)C(F)(F)F)C(=O)N2CCC[C@@]3(C2)OC(=O)Nc2ccc(Cl)cc23)cc1` [Example 54, methyl (4-(((S)-1-((R)-6-chloro-2-oxo-1,2-dihydrospiro[benzo[d][1,3]oxazine-4,3′-piperidin]-1′-yl)-1-oxo-6-(2,2,2-trifluoroacetamido)hexan-2-yl)carbamoyl)phenyl)carbamate]: 7.28; for `COC(=O)Nc1ccc(C(=O)N[C@@H](C)C(=O)N2CCC[C@@]3(C2)OC(=O)Nc2ccc(Cl)cc23)cc1` [Example 55, methyl (4-(((S)-1-((R)-6-chloro-2-oxo-1,2-dihydrospiro[benzo[d][1,3]oxazine-4,3′-piperidin]-1′-yl)-1-oxopropan-2-yl)carbamoyl)phenyl)carbamate]: 7.03.
On to `COC(=O)Nc1ccc(C(=O)N[C@@H](CC[S+](C)[O-])C(=O)N2CCC[C@@]3(C2)OC(=O)Nc2ccc(Cl)cc23)cc1` (stereo partly drawn) [Example 56, methyl (4-(((2S)-1-((R)-6-chloro-2-oxo-1,2-dihydrospiro[benzo[d][1,3]oxazine-4,3′-piperidin]-1′-yl)-4-(methylsulfinyl)-1-oxobutan-2-yl)carbamoyl)phenyl)carbamate], for which the pKi was 6.99.
`COC(=O)Nc1ccc(C(=O)N[C@@H](CCS(C)(=O)=O)C(=O)N2CCC[C@@]3(C2)OC(=O)Nc2ccc(Cl)cc23)cc1` [Example 59, methyl (4-(((S)-1-((R)-6-chloro-2-oxo-1,2-dihydrospiro[benzo[d][1,3]oxazine-4,3′-piperidin]-1′-yl)-4-(methylsulfonyl)-1-oxobutan-2-yl)carbamoyl)phenyl)carbamate]: the negative-log Ki (pKi) was 7.01.
As for `COC(=O)Nc1ccc(C(=O)N[C@@H](CC(F)(F)F)C(=O)N2CCC[C@@]3(C2)OC(=O)Nc2ccc(Cl)cc23)cc1` [Example 64, methyl (4-(((S)-1-((R)-6-chloro-2-oxo-1,2-dihydrospiro[benzo[d][1,3]oxazine-4,3′-piperidin]-1′-yl)-4,4,4-trifluoro-1-oxobutan-2-yl)carbamoyl)phenyl)carbamate], the figure is 5.71; as for `COC(=O)Nc1ccc(C(=O)N[C@H](C(=O)N2CCC[C@@]3(C2)OC(=O)Nc2ccc(Cl)c(F)c23)C2CC2)cc1` [Example 68, methyl (4-(((S)-2-((R)-6-chloro-5-fluoro-2-oxo-1,2-dihydrospiro[benzo[d][1,3]oxazine-4,3′-piperidin]-1′-yl)-1-cyclopropyl-2-oxoethyl)carbamoyl)phenyl)carbamate], 7.25; as for `COC(=O)Nc1ccc(C(=O)N[C@@H](Cc2cnc3ccccc3n2)C(=O)N2CCC[C@@]3(C2)OC(=O)Nc2ccc(Cl)c(F)c23)cc1` [Example 69, methyl (4-(((S)-1-((R)-6-chloro-5-fluoro-2-oxo-1,2-dihydrospiro[benzo[d][1,3]oxazine-4,3′-piperidin]-1′-yl)-1-oxo-3-(quinoxalin-2-yl)propan-2-yl)carbamoyl)phenyl)carbamate], 7.44.
As to `COC(=O)Nc1ccc(C(=O)N[C@@H](Cc2c[nH]c3ccccc23)C(=O)N2CCC[C@@]3(C2)OC(=O)Nc2ccc(Cl)c(F)c23)cc1` [Example 70, methyl (4-(((S)-1-((R)-6-chloro-5-fluoro-2-oxo-1,2-dihydrospiro[benzo[d][1,3]oxazine-4,3′-piperidin]-1′-yl)-3-(1H-indol-3-yl)-1-oxopropan-2-yl)carbamoyl)phenyl)carbamate], the pKi was 7.68.
With `COC(=O)Nc1ccc(C(=O)N[C@@H](CC2CCC2)C(=O)N2CCC[C@@]3(C2)OC(=O)Nc2ccc(Cl)cc23)cc1` [Example 71, methyl (4-(((S)-1-((R)-6-chloro-2-oxo-1,2-dihydrospiro[benzo[d][1,3]oxazine-4,3′-piperidin]-1′-yl)-3-cyclobutyl-1-oxopropan-2-yl)carbamoyl)phenyl)carbamate], the negative-log Ki (pKi) was 7.29.
Turning to `COC(=O)Nc1ccc(C(=O)N[C@@H](CC2CCCC2)C(=O)N2CCC[C@@]3(C2)OC(=O)Nc2ccc(Cl)cc23)cc1` [Example 73, methyl (4-(((S)-1-((R)-6-chloro-2-oxo-1,2-dihydrospiro[benzo[d][1,3]oxazine-4,3′-piperidin]-1′-yl)-3-cyclopentyl-1-oxopropan-2-yl)carbamoyl)phenyl)carbamate], the pKi was 7.50.
For the compound `COC/C=C/c1ccc(C[C@H](NC(=O)c2ccc(NC(=O)OC)cc2)C(=O)N2CC[C@@]3(C2)OC(=O)Nc2ccc(Cl)cc23)cc1` [Example 80, methyl (4-(((S)-1-((R)-6-chloro-2-oxo-1,2-dihydrospiro[benzo[d][1,3]oxazine-4,3′-pyrrolidin]-1′-yl)-3-(4-((E)-3-methoxyprop-1-en-1-yl)phenyl)-1-oxopropan-2-yl)carbamoyl)phenyl)carbamate], the negative-log Ki (pKi) is 7.12.
The same measure for `COC(=O)Nc1ccc(C(=O)N[C@@H](CC(=O)N2CC(F)(F)C2)C(=O)N2CCC[C@@]3(C2)OC(=O)Nc2ccc(Cl)cc23)cc1` [Example 85, methyl (4-(((S)-1-((R)-6-chloro-2-oxo-1,2-dihydrospiro[benzo[d][1,3]oxazine-4,3′-piperidin]-1′-yl)-4-(3,3-difluoroazetidin-1-yl)-1,4-dioxobutan-2-yl)carbamoyl)phenyl)carbamate]: 7.48; for `COC(=O)Nc1ccc(C(=O)N[C@@H](CC(=O)NC2CCC2)C(=O)N2CCC[C@@]3(C2)OC(=O)Nc2ccc(Cl)cc23)cc1` [Example 86, methyl (4-(((S)-1-((R)-6-chloro-2-oxo-1,2-dihydrospiro[benzo[d][1,3]oxazine-4,3′-piperidin]-1′-yl)-4-(cyclobutylamino)-1,4-dioxobutan-2-yl)carbamoyl)phenyl)carbamate]: 7.47; for `COC(=O)Nc1ccc(C(=O)N[C@@H](CC(=O)N2CCOCC2)C(=O)N2CC[C@@]3(C2)OC(=O)Nc2ccc(Cl)cc23)cc1` [Example 88, methyl (4-(((S)-1-((R)-6-chloro-2-oxo-1,2-dihydrospiro[benzo[d][1,3]oxazine-4,3′-pyrrolidin]-1′-yl)-4-morpholino-1,4-dioxobutan-2-yl)carbamoyl)phenyl)carbamate]: 7.70.
Turning to `COC(=O)Nc1ccc(C(=O)N[C@@H](CC(=O)NC2CCOCC2)C(=O)N2CC[C@@]3(C2)OC(=O)Nc2ccc(Cl)cc23)cc1` [Example 89, methyl (4-(((S)-1-((R)-6-chloro-2-oxo-1,2-dihydrospiro[benzo[d][1,3]oxazine-4,3′-pyrrolidin]-1′-yl)-1,4-dioxo-4-((tetrahydro-2H-pyran-4-yl)amino)butan-2-yl)carbamoyl)phenyl)carbamate], the negative logarithm of the Ki (pKi) is 7.23.
